The record followed here is US20240279319A1, “ANTIBODY FOR IDENTIFYING PHOSPHORYLATION-SPECIFIC REACTIONS OF THREONINE AT POSITION 1010 OF NCAPG2, AND USE THEREOF” (NATIONAL CANCER CENTER, priority 2021, published 2024).

The test system of the experiment is NCAPG2 pT1010. The experiment is described as follows: NCAPG2 pT1010-specific antibody reactivity after phosphorylase inhibitor treatment of nocodazole-treated breast cancer cells. The note with it: MBAMB 231 treated with nocodazole, then inhibitor for 2 hours; FIG. 1B, 1C. Type of experiment: cell-based, human. On the procedure:
In addition, to confirm a phosphorylase inducing phosphorylation, after treating a breast cancer cell line MBAMB 231 with nocodazole, which is a mitosis-inducing reagent, and then with inhibitors of phosphorylases regulating mitosis for 2 hours, the reactivity of the NCAPG2 pT1010-specific antibody was confirmed.

`O=C1NC(=NCc2cccs2)S/C1=C\c1ccc2ncccc2c1` [RO3306]: the “NCAPG2 pT1010 phosphospecific bands after kinase inhibition” value is reported as “phosphospecific bands disappear”.

Consider `c1nc2nc(Nc3ccc(N4CCOCC4)cc3)nc(NC3CCCCC3)c2[nH]1` [reversine], for which the “NCAPG2 pT1010 phosphospecific bands after kinase inhibition” value is given as “phosphospecific bands disappear”.
